Several values for one entry are separate records, joined by “and”; a condition that tells them apart may be missing. Equal entries are not always repeated. Inconclusive results and toxic doses are left out. Cut-off read from the data, not from the text of the source: active = T/C of 150% or more; inactive = T/C below 125%. Peptide text beside a SMILES is read from it.
System: L1210 leukemia ip in BDF1 mice, survival T/C
Experiment: NCI In Vivo Anticancer Drug Screen. Data for tumor model L1210 Leukemia (intraperitoneal) in B6D2F1 (BDF1) mice
Conditions: endpoint: mean survival time, higher = longer survival
Summary of the method: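 Tumor cells were implanted, animals were treated, and survival was followed. The result divides the treated measurement by the vehicle-control measurement.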

[1] = dose: 100.0 mg/kg/injection, schedule: Q04DX003 (ip), vehicle: saline with Tween-80
[2] = dose: 200.0 mg/kg/injection, schedule: Q04DX003 (ip), vehicle: saline with Tween-80
[3] = dose: 25.0 mg/kg/injection, schedule: Q01DX009 (ip), vehicle: Klucel (hydroxypropylcellulose) (HPC)
[4] = dose: 50.0 mg/kg/injection, schedule: Q01DX009 (ip), vehicle: Klucel (hydroxypropylcellulose) (HPC)
[5] = dose: 100.0 mg/kg/injection, schedule: Q01DX009 (ip), vehicle: Klucel (hydroxypropylcellulose) (HPC)
[6] = dose: 100.0 mg/kg/injection, schedule: Q04DX003 (ip), vehicle: Klucel (hydroxypropylcellulose) (HPC)
[7] = dose: 200.0 mg/kg/injection, schedule: Q04DX003 (ip), vehicle: Klucel (hydroxypropylcellulose) (HPC)
[8] = dose: 400.0 mg/kg/injection, schedule: Q04DX003 (ip), vehicle: Klucel (hydroxypropylcellulose) (HPC)
[9] = dose: 200.0 mg/kg/injection, schedule: Q01DX009 (ip), vehicle: Klucel (hydroxypropylcellulose) (HPC)
[10] = dose: 100.0 mg/kg/injection, schedule: Q01DX001 (ip), vehicle: saline
[11] = dose: 200.0 mg/kg/injection, schedule: Q01DX001 (ip), vehicle: saline
[12] = dose: 400.0 mg/kg/injection, schedule: Q01DX001 (ip), vehicle: saline
[13] = dose: 100.0 mg/kg/injection, schedule: Q01DX009 (ip), vehicle: saline
[14] = dose: 200.0 mg/kg/injection, schedule: Q01DX009 (ip), vehicle: saline
[15] = dose: 400.0 mg/kg/injection, schedule: Q01DX009 (ip), vehicle: saline
[16] = dose: 100.0 mg/kg/injection, schedule: Q01DX001 (ip), vehicle: Klucel (hydroxypropylcellulose) (HPC)
[17] = dose: 200.0 mg/kg/injection, schedule: Q01DX001 (ip), vehicle: Klucel (hydroxypropylcellulose) (HPC)
[18] = dose: 400.0 mg/kg/injection, schedule: Q01DX001 (ip), vehicle: Klucel (hydroxypropylcellulose) (HPC)
[19] = dose: 100.0 mg/kg/injection, schedule: Q04DX003 (ip), vehicle: saline
[20] = dose: 200.0 mg/kg/injection, schedule: Q04DX003 (ip), vehicle: saline
[21] = dose: 400.0 mg/kg/injection, schedule: Q04DX003 (ip), vehicle: saline
[22] = dose: 400.0 mg/kg/injection, schedule: Q01DX009 (ip), vehicle: Klucel (hydroxypropylcellulose) (HPC)

Measured: T/C

Clc1nc2ccccc2s1.Clc1nc2ccccc2s1.Clc1nc2ccccc2s1.Clc1nc2ccccc2s1.[Cl][Rh][Cl]
inactive: dose: 3.13 mg/kg/injection, schedule: Q04DX003 (ip), vehicle: distilled water + Tween-80 94 % of control | dose: 6.25 mg/kg/injection, schedule: Q04DX003 (ip), vehicle: distilled water + Tween-80 96 % of control | dose: 12.5 mg/kg/injection, schedule: Q04DX003 (ip), vehicle: distilled water + Tween-80 96 % of control | dose: 25.0 mg/kg/injection, schedule: Q04DX003 (ip), vehicle: distilled water + Tween-80 102 % of control | dose: 50.0 mg/kg/injection, schedule: Q04DX003 (ip), vehicle: distilled water + Tween-80 103 % of control | dose: 100.0 mg/kg/injection, schedule: Q04DX003 (ip), vehicle: distilled water + Tween-80 102 % of control | dose: 200.0 mg/kg/injection, schedule: Q04DX003 (ip), vehicle: distilled water + Tween-80 103 % of control

CN1C(=O)CC(C(=O)c2ccc(N3C(=O)C=CC3=O)cc2)(c2ccccc2)C1=O (stereo unspecified)
inactive: dose: 25.0 mg/kg/injection, schedule: Q04DX002 (ip), vehicle: saline with Tween-80 102 % of control | dose: 50.0 mg/kg/injection, schedule: Q04DX002 (ip), vehicle: saline with Tween-80 98 % of control

O=C1c2ccccc2C(=O)N1CC(O)CCl (stereo unspecified)
inactive: dose: 50.0 mg/kg/injection, schedule: Q01DX009 (ip), vehicle: saline with Tween-80 93 % of control | dose: 50.0 mg/kg/injection, schedule: Q04DX003 (ip), vehicle: saline with Tween-80 91 % of control | dose: 100.0 mg/kg/injection, schedule: Q01DX009 (ip), vehicle: saline with Tween-80 93 % of control | [1] 102 % of control | dose: 200.0 mg/kg/injection, schedule: Q01DX009 (ip), vehicle: saline with Tween-80 90 % of control | [2] 96 % of control

O=C(O)C1CCC2CCCCC2[N-]1.O=C(O)C1CCC2CCCCC2[N-]1.[Zn+2] (stereo unspecified)
inactive: [3] 92 % of control | [4] 87 % of control | [5] 86 % of control | [6] 94 % of control | [7] 89 % of control | [8] 89 % of control

Cc1[nH]c(=S)oc1C
inactive: dose: 75.0 mg/kg/injection, schedule: Q01DX001 (ip), vehicle: other 105 % of control | dose: 150.0 mg/kg/injection, schedule: Q01DX001 (ip), vehicle: other 97 % of control | dose: 300.0 mg/kg/injection, schedule: Q01DX001 (ip), vehicle: other 103 % of control

Cc1ccc(C(=O)NC(N)=O)cc1
inactive: [5] 101 % of control | [9] 95 % of control

CC1CCc2cc3c(cc2C1=O)sc1ccccc13 (stereo unspecified)
inactive: [10] 108 % of control | [11] 105 % of control | [12] 89 % of control

CC1=C(C)C2(Cl)C(Cl)=C(Cl)C1(Cl)C2(Cl)Cl
inactive: dose: 50.0 mg/kg/injection, schedule: Q04DX003 (ip), vehicle: Klucel (hydroxypropylcellulose) (HPC) 96 % of control | [6] 91 % of control | [7] 92 % of control | [8] 96 % of control

CN(C)C(=O)CCl
inactive: [13] 96 % of control | [14] 98 % of control | [15] 104 % of control

CC1=NCC(C)(C)O1
inactive: [1] 98 % of control | [2] 95 % of control | dose: 400.0 mg/kg/injection, schedule: Q04DX003 (ip), vehicle: saline with Tween-80 98 % of control

O=S(=O)(/C=C/c1ccccc1)N1CCCCC1
inactive: [10] 103 % of control | [11] 102 % of control | [12] 102 % of control

COc1ccccc1C1CCCCCC1O (stereo unspecified)
inactive: [13] 98 % of control | [14] 98 % of control | [15] 98 % of control

O=c1[nH]n(-c2ccccc2)c(=O)c2ccccc12
inactive: [16] 110 % of control and 102 % of control | [17] 100 % of control and 94 % of control | [18] 100 % of control and 104 % of control

CCN(CC)CCCC(C)Nc1c2ccccc2nc2c(Cl)cccc12 (stereo unspecified)
inactive: dose: 20.0 mg/kg/injection, schedule: Q01DX Z (ip), vehicle: methylcellulose (MC) 100 % of control and 86 % of control | dose: 30.0 mg/kg/injection, schedule: Q01DX Z (ip), vehicle: methylcellulose (MC) 92 % of control and 87 % of control | dose: 45.0 mg/kg/injection, schedule: Q01DX Z (ip), vehicle: methylcellulose (MC) 95 % of control and 101 % of control | dose: 67.0 mg/kg/injection, schedule: Q01DX Z (ip), vehicle: methylcellulose (MC) 91 % of control | [6] 102 % of control

C=CCOCC(O)CN(C)CCCCCCCCCCCC (stereo unspecified)
inactive: dose: 6.0 mg/kg/injection, schedule: Q04DX003 (ip), vehicle: Klucel (hydroxypropylcellulose) (HPC) 98 % of control | dose: 12.0 mg/kg/injection, schedule: Q04DX003 (ip), vehicle: Klucel (hydroxypropylcellulose) (HPC) 96 % of control | [3] 109 % of control | dose: 25.0 mg/kg/injection, schedule: Q04DX003 (ip), vehicle: Klucel (hydroxypropylcellulose) (HPC) 93 % of control and 96 % of control | [4] 109 % of control | [6] 96 % of control

CCN(C)O
inactive: [13] 109 % of control | [19] 110 % of control | [14] 111 % of control | [20] 105 % of control | [15] 104 % of control | [21] 114 % of control

O=C(O)CCCCCNCc1cc(=O)[nH]c(=O)[nH]1
inactive: [19] 97 % of control | [20] 101 % of control

Cc1cc(C)nc(NC(=O)Nc2cccc(C(F)(F)F)c2)c1
inactive: [16] 102 % of control | [5] 104 % of control and 113 % of control | dose: 100.0 mg/kg/injection, schedule: Q04DX002 (ip), vehicle: Klucel (hydroxypropylcellulose) (HPC) 101 % of control and 117 % of control | [6] 94 % of control | [17] 94 % of control | [9] 93 % of control and 109 % of control | dose: 200.0 mg/kg/injection, schedule: Q04DX002 (ip), vehicle: Klucel (hydroxypropylcellulose) (HPC) 96 % of control and 98 % of control | [7] 111 % of control | [18] 98 % of control | [22] 104 % of control and 107 % of control | dose: 400.0 mg/kg/injection, schedule: Q04DX002 (ip), vehicle: Klucel (hydroxypropylcellulose) (HPC) 98 % of control and 99 % of control | [8] 99 % of control

Cc1ccc(NC(=S)N2CCC(CCCC3CCN(C(=S)Nc4ccc(C)c(C)c4)CC3)CC2)cc1C
inactive: [5] 93 % of control | [6] 88 % of control | [9] 90 % of control | [7] 98 % of control | [22] 90 % of control | [8] 92 % of control

CN(C)/C=N/NC(=O)C(O)(c1ccccc1)c1ccccc1
inactive: dose: 75.0 mg/kg/injection, schedule: Q01DX009 (ip), vehicle: Klucel (hydroxypropylcellulose) (HPC) 105 % of control | dose: 150.0 mg/kg/injection, schedule: Q01DX009 (ip), vehicle: Klucel (hydroxypropylcellulose) (HPC) 100 % of control | dose: 300.0 mg/kg/injection, schedule: Q01DX009 (ip), vehicle: Klucel (hydroxypropylcellulose) (HPC) 95 % of control

Cc1cc(N(C)C)cc(C)c1N=Nc1cc(Cl)ccc1Cl
inactive: [6] 94 % of control | [7] 96 % of control | [8] 87 % of control

CC(=O)OCC1OC(Sc2cc(Cl)ccc2Cl)C(OC(C)=O)C(OC(C)=O)C1OC(C)=O (stereo unspecified)
inactive: [10] 100 % of control | [11] 94 % of control | [12] 100 % of control

Nc1ncnc2c1c(-c1ncn[nH]1)cn2C1OC(CO)C(O)C1O (stereo unspecified)
inactive: dose: 0.09 mg/kg/injection, schedule: Q01DX009 (ip), vehicle: saline 119 % of control | dose: 0.19 mg/kg/injection, schedule: Q01DX009 (ip), vehicle: saline 119 % of control | dose: 0.39 mg/kg/injection, schedule: Q01DX005 (ip), vehicle: saline 119 % of control

CCSC(=N)N=Nc1ccc(O)cc1
inactive: dose: 50.0 mg/kg/injection, schedule: Q01DX001 (ip), vehicle: saline 104 % of control | [10] 98 % of control | [11] 102 % of control

CSCCC(NC(=O)C(N)C(C)C)C(=O)O (stereo not drawn) (H-Val-Met-OH; configuration not given here)
inactive: [19] 100 % of control | [20] 108 % of control | [21] 103 % of control

O=C(COc1ccc(Cl)cc1)N(c1ccccc1)C1CCCCC1
inactive: [5] 96 % of control | [9] 96 % of control | [22] 94 % of control
